Key:
[1] = Study for confirmation of conversion to brexpiprazole in a buffer (stability of the evaluation compounds); format: physicochemical; conditions: in buffer, average of duplicate; for Concentration of brexpiprazole formed: 60-minute reaction sample; for Concentration of evaluation compound decreased: decrease in 60-minute vs 0-minute reaction sample
Outline: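 Compounds (final 1 μmol/L, from 100 μmol/L working solutions) incubated in buffer at 37° C. for 0 or 60 min, in duplicate, after 3 min pre-incubation of the reaction solution. Reactions stopped with acetonitrile/isopropanol (4:1) containing internal standards; compound and formed brexpiprazole quantified against 0.01–1 μmol/L calibration samples.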

[2] = in vitro; format: cell-based, human; conditions: human, differentiated hl-60 cells, 300 μmol/L, about 24 hours, PMA-differentiated HL-60 cells, LDH; no-treatment 0%, cell lysis buffer 100%; read-out: cytotoxicity (%) Evaluation compound results
Description: An HL-60 cell line (human acute promyelocytic leukemia cells) was successively cultured in RPMI 1640 containing 20% fetal bovine serum (FBS) at 37° C. in 95% atmosphere/5% CO2. Before evaluation, the cells were pre-cultured for about 72 hours in the presence of 10 nM phorbol 12-myristate 13-acetate (PMA) to induce macrophage-like differentiation.
Evaluation compounds were dissolved in DMSO to obtain 30 mmol/L solutions (or suspensions). Each DMSO solution was diluted 100-fold with RPMI 1640 containing 2% FBS (final concentration of the compound: 300 μmol/L) to obtain a treatment solution. The culture supernatant of the differentiated HL-60 cells was removed, and each treatment solution was added and cultured for about 24 hours, followed by cytotoxicity evaluation.
The activity of lactate dehydrogenase (LDH) was measured in the treatment solutions exposed to the cells for about 24 hours by using a commercial kit (Cytotoxicity LDH Assay Kit-WST, Dojindo Laboratories) and a plate reader (Tecan Infinite M1000). The obtained measurement values were used to calculate cytotoxicity (%) as comparison values for each evaluation compound-treated group, with the no-treatment group taken as 0% and the cell lysis buffer-treated group taken as 100%. The test was conducted in triplicate in three wells each, and the average values were used as adopted values.

Row | Structure (SMILES) | Concentration of brexpiprazole formed [1] [nM] | Concentration of evaluation compound decreased [1] [nM] | cytotoxicity at 24 h, 300 µM [2] [%]
1 | O=c1ccc2ccc(OCCCC[N+]3(COP(=O)([O-])OCCCCCCO)CCN(c4cccc5sccc45)CC3)cc2[nH]1 [EX 44, (4-(benzo[b]thiophen-4-yl)-1-(4-((2-oxo-1,2-dihydroquinolin-7-yl)oxy)butyl)piperazin-1-ium-1-yl)methyl (6-hydroxyhexyl) phosphate] | 0 | -50 | -8
2 | O=c1ccc2ccc(OCCCC[N+]3(COP(=O)([O-])OCCCCCCCO)CCN(c4cccc5sccc45)CC3)cc2[nH]1 [EX 45, (4-(benzo[b]thiophen-4-yl)-1-(4-((2-oxo-1,2-dihydroquinolin-7-yl)oxy)butyl)piperazin-1-ium-1-yl)methyl (7-hydroxyheptyl) phosphate] | 0 | 70 | 3
3 | O=c1ccc2ccc(OCCCC[N+]3(COP(=O)([O-])OCCCCCCCCCO)CCN(c4cccc5sccc45)CC3)cc2[nH]1 [EX 46, (4-(benzo[b]thiophen-4-yl)-1-(4-((2-oxo-1,2-dihydroquinolin-7-yl)oxy)butyl)piperazin-1-ium-1-yl)methyl (9-hydroxynonyl) phosphate] | 0 | 40 | 14
4 | O=c1ccc2ccc(OCCCC[N+]3(COP(=O)([O-])OCC4(CO)CC4)CCN(c4cccc5sccc45)CC3)cc2[nH]1 [EX 47, (4-(benzo[b]thiophen-4-yl)-1-(4-((2-oxo-1,2-dihydroquinolin-7-yl)oxy)butyl)piperazin-1-ium-1-yl)methyl ((1-(hydroxymethyl)cyclopropyl)methyl) phosphate] | 0 | 0 | -5
5 | CC(C)(CO)COP(=O)([O-])OC[N+]1(CCCCOc2ccc3ccc(=O)[nH]c3c2)CCN(c2cccc3sccc23)CC1 [EX 48, (4-(benzo[b]thiophen-4-yl)-1-(4-((2-oxo-1,2-dihydroquinolin-7-yl)oxy)butyl)piperazin-1-ium-1-yl)methyl (3-hydroxy-2,2-dimethylpropyl) phosphate] | 0 | -30 | -9
6 | COCCCOP(=O)([O-])OC[N+]1(CCCCOc2ccc3ccc(=O)[nH]c3c2)CCN(c2cccc3sccc23)CC1 [EX 49, (4-(benzo[b]thiophen-4-yl)-1-(4-((2-oxo-1,2-dihydroquinolin-7-yl)oxy)butyl)piperazin-1-ium-1-yl)methyl (3-methoxypropyl) phosphate] | 0 | 50 | -7
7 | COCCCCOP(=O)([O-])OC[N+]1(CCCCOc2ccc3ccc(=O)[nH]c3c2)CCN(c2cccc3sccc23)CC1 [EX 50, (4-(benzo[b]thiophen-4-yl)-1-(4-((2-oxo-1,2-dihydroquinolin-7-yl)oxy)butyl)piperazin-1-ium-1-yl)methyl (4-methoxybutyl) phosphate] | 0 | 10 | -8
8 | CC(C)COCCOP(=O)([O-])OC[N+]1(CCCCOc2ccc3ccc(=O)[nH]c3c2)CCN(c2cccc3sccc23)CC1 [EX 51, (4-(benzo[b]thiophen-4-yl)-1-(4-((2-oxo-1,2-dihydroquinolin-7-yl)oxy)butyl)piperazin-1-ium-1-yl)methyl (2-isobutoxyethyl) phosphate] | 0 | 50 | -9
9 | O=c1ccc2ccc(OCCCC[N+]3(COP(=O)([O-])OCCOCC4CC4)CCN(c4cccc5sccc45)CC3)cc2[nH]1 [EX 52, (4-(benzo[b]thiophen-4-yl)-1-(4-((2-oxo-1,2-dihydroquinolin-7-yl)oxy)butyl)piperazin-1-ium-1-yl)methyl (2-(cyclopropylmethoxy)ethyl) phosphate] | 0 | -40 | -1
10 | COCCOCOCCCCOP(=O)([O-])OC[N+]1(CCCCOc2ccc3ccc(=O)[nH]c3c2)CCN(c2cccc3sccc23)CC1 [EX 53, (4-(benzo[b]thiophen-4-yl)-1-(4-((2-oxo-1.2-dihydroquinolin-7-yl)oxy)butyl)piperazin-1-ium-1-yl)methyl (4-((2-methoxyethoxy)methoxy)butyl) phosphate] | 0 | 60 | -3
11 | COCC1CCC(COP(=O)([O-])OC[N+]2(CCCCOc3ccc4ccc(=O)[nH]c4c3)CCN(c3cccc4sccc34)CC2)CC1 (stereo not drawn) [EX 54, (4-(benzo[b]thiophen-4-yl)-1-(4-((2-oxo-1,2-dihydroquinolin-7-yl)oxy)butyl)piperazin-1-ium-1-yl)methyl ((4-(methoxymethyl)cyclohexyl)methyl) phosphate] | 0 | 140 | -10
12 | CC1(C)OCC(COP(=O)([O-])OC[N+]2(CCCCOc3ccc4ccc(=O)[nH]c4c3)CCN(c3cccc4sccc34)CC2)CO1 [EX 55, (4-(benzo[b]thiophen-4-yl)-1-(4-((2-oxo-1,2-dihydroquinolin-7-yl)oxy)butyl)piperazin-1-ium-1-yl)methyl ((2,2-dimethyl-1,3-dioxan-5-yl)methyl) phosphate] | 0 | 70 | -7
13 | COCC(COC)OP(=O)([O-])OC[N+]1(CCCCOc2ccc3ccc(=O)[nH]c3c2)CCN(c2cccc3sccc23)CC1 [EX 56, (4-(benzo[b]thiophen-4-yl)-1-(4-((2-oxo-1,2-dihydroquinolin-7-yl)oxy)butyl)piperazin-1-ium-1-yl)methyl (1,3-dimethoxypropan-2-yl) phosphate] | 0 | 40 | -6
14 | O=C(OCCCCCCOP(=O)([O-])OC[N+]1(CCCCOc2ccc3ccc(=O)[nH]c3c2)CCN(c2cccc3sccc23)CC1)c1ccccc1 [EX 57, (4-(benzo[b]thiophen-4-yl)-1-(4-((2-oxo-1,2-dihydroquinolin-7-yl)oxy)butyl)piperazin-1-ium-1-yl)methyl (6-(benzoyloxy)hexyl) phosphate] | 0 | 90 | 4

— US20260285888A1, “HETEROCYCLIC COMPOUND AND USE THEREOF” (OTSUKA PHARMACEUTICAL CO., LTD., priority 2023, published 2026)
